PubChem BioAssay (NCI)
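1) Cells in 96-well plates. 2) Compound, 48 h, 5 concentrations. 3) Linear interpolation between surrounding doses. 4) Unreached endpoint = highest concentration. The concentration for full growth arrest is given as TGI.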

The compounds below were run on A498 renal (assay: growth of human tumour cells (NCI), 48 h).

SMILES	TGI [µM]
COc1cc(OC)c(OC)cc1/C=C/c1nc2ccccc2s1	> 100
Cc1noc(NC(=O)Nc2ccccc2F)c1C#N	> 50.9
C[C@@H]1CC[C@]2(C)C3(C)CC[C@]2(OC3=O)[C@@]12CC(c1ccoc1)OC2=O (stereo not given in full)	> 100

The compounds below were run on ACHN renal (assay: growth of human tumour cells (NCI), 48 h).

SMILES	TGI [µM]
COc1cc(OC)c(OC)cc1/C=C/c1nc2ccccc2s1	> 100
Cc1noc(NC(=O)Nc2ccccc2F)c1C#N	> 46.7
C[C@@H]1CC[C@]2(C)C3(C)CC[C@]2(OC3=O)[C@@]12CC(c1ccoc1)OC2=O (stereo not given in full)	43.6

The compounds below were run on OVCAR-3 ovarian (assay: growth of human tumour cells (NCI), 48 h).

SMILES	TGI [µM]
COc1cc(OC)c(OC)cc1/C=C/c1nc2ccccc2s1	> 100
Cc1noc(NC(=O)Nc2ccccc2F)c1C#N	> 100
C[C@@H]1CC[C@]2(C)C3(C)CC[C@]2(OC3=O)[C@@]12CC(c1ccoc1)OC2=O (stereo not given in full)	58.2

Each compound was assayed on MCF7 breast (assay: growth of human tumour cells (NCI), 48 h).

SMILES	TGI [µM]
COc1cc(OC)c(OC)cc1/C=C/c1nc2ccccc2s1	> 100
Cc1noc(NC(=O)Nc2ccccc2F)c1C#N	> 35.6
C[C@@H]1CC[C@]2(C)C3(C)CC[C@]2(OC3=O)[C@@]12CC(c1ccoc1)OC2=O (stereo not given in full)	> 100
c1ccc(COC[C@H]2O[C@@H](c3ccccc3)C[C@@H](OCc3ccccc3)C2OCc2ccccc2)cc1 (stereo not given in full)	> 10

What follows are compounds tested on UACC-62 melanoma (assay: growth of human tumour cells (NCI), 48 h).

SMILES	TGI [µM]
Cc1noc(NC(=O)Nc2ccccc2F)c1C#N	> 45.4
C[C@@H]1CC[C@]2(C)C3(C)CC[C@]2(OC3=O)[C@@]12CC(c1ccoc1)OC2=O (stereo not given in full)	> 100
c1ccc(COC[C@H]2O[C@@H](c3ccccc3)C[C@@H](OCc3ccccc3)C2OCc2ccccc2)cc1 (stereo not given in full)	> 10

The compounds below were run on EKVX NSCLC (assay: growth of human tumour cells (NCI), 48 h).

SMILES	TGI [µM]
COc1cc(OC)c(OC)cc1/C=C/c1nc2ccccc2s1	> 100
Cc1noc(NC(=O)Nc2ccccc2F)c1C#N	25.1
C[C@@H]1CC[C@]2(C)C3(C)CC[C@]2(OC3=O)[C@@]12CC(c1ccoc1)OC2=O (stereo not given in full)	> 100
c1ccc(COC[C@H]2O[C@@H](c3ccccc3)C[C@@H](OCc3ccccc3)C2OCc2ccccc2)cc1 (stereo not given in full)	> 10

Each compound was assayed on HCT-15 colon (assay: growth of human tumour cells (NCI), 48 h).

SMILES	TGI [µM]
COc1cc(OC)c(OC)cc1/C=C/c1nc2ccccc2s1	> 100
Cc1noc(NC(=O)Nc2ccccc2F)c1C#N	> 100
C[C@@H]1CC[C@]2(C)C3(C)CC[C@]2(OC3=O)[C@@]12CC(c1ccoc1)OC2=O (stereo not given in full)	> 100
c1ccc(COC[C@H]2O[C@@H](c3ccccc3)C[C@@H](OCc3ccccc3)C2OCc2ccccc2)cc1 (stereo not given in full)	> 10

What follows are compounds tested on SN12C renal (assay: growth of human tumour cells (NCI), 48 h).

SMILES	TGI [µM]
COc1cc(OC)c(OC)cc1/C=C/c1nc2ccccc2s1	> 100
Cc1noc(NC(=O)Nc2ccccc2F)c1C#N	> 48
C[C@@H]1CC[C@]2(C)C3(C)CC[C@]2(OC3=O)[C@@]12CC(c1ccoc1)OC2=O (stereo not given in full)	95.5
c1ccc(COC[C@H]2O[C@@H](c3ccccc3)C[C@@H](OCc3ccccc3)C2OCc2ccccc2)cc1 (stereo not given in full)	> 10

Each compound was assayed on SR leukemia (assay: growth of human tumour cells (NCI), 48 h).

SMILES	TGI [µM]
Cc1noc(NC(=O)Nc2ccccc2F)c1C#N	> 100
C[C@@H]1CC[C@]2(C)C3(C)CC[C@]2(OC3=O)[C@@]12CC(c1ccoc1)OC2=O (stereo not given in full)	81
c1ccc(COC[C@H]2O[C@@H](c3ccccc3)C[C@@H](OCc3ccccc3)C2OCc2ccccc2)cc1 (stereo not given in full)	> 10

Each compound was assayed on IGROV1 ovarian (assay: growth of human tumour cells (NCI), 48 h).

SMILES	TGI [µM]
COc1cc(OC)c(OC)cc1/C=C/c1nc2ccccc2s1	> 100
Cc1noc(NC(=O)Nc2ccccc2F)c1C#N	> 100
C[C@@H]1CC[C@]2(C)C3(C)CC[C@]2(OC3=O)[C@@]12CC(c1ccoc1)OC2=O (stereo not given in full)	64.7
c1ccc(COC[C@H]2O[C@@H](c3ccccc3)C[C@@H](OCc3ccccc3)C2OCc2ccccc2)cc1 (stereo not given in full)	> 10

What follows are compounds tested on OVCAR-4 ovarian (assay: growth of human tumour cells (NCI), 48 h).

SMILES	TGI [µM]
Cc1noc(NC(=O)Nc2ccccc2F)c1C#N	> 100
C[C@@H]1CC[C@]2(C)C3(C)CC[C@]2(OC3=O)[C@@]12CC(c1ccoc1)OC2=O (stereo not given in full)	48.3

These compounds were tested on RPMI-8226 leukemia (assay: growth of human tumour cells (NCI), 48 h).

SMILES	TGI [µM]
COc1cc(OC)c(OC)cc1/C=C/c1nc2ccccc2s1	> 100
Cc1noc(NC(=O)Nc2ccccc2F)c1C#N	> 100
C[C@@H]1CC[C@]2(C)C3(C)CC[C@]2(OC3=O)[C@@]12CC(c1ccoc1)OC2=O (stereo not given in full)	77.5
c1ccc(COC[C@H]2O[C@@H](c3ccccc3)C[C@@H](OCc3ccccc3)C2OCc2ccccc2)cc1 (stereo not given in full)	> 10

Each compound was assayed on BT-549 breast (assay: growth of human tumour cells (NCI), 48 h).

SMILES	TGI [µM]
Cc1noc(NC(=O)Nc2ccccc2F)c1C#N	> 100

What follows are compounds tested on CCRF-CEM leukemia (assay: growth of human tumour cells (NCI), 48 h).

SMILES	TGI [µM]
COc1cc(OC)c(OC)cc1/C=C/c1nc2ccccc2s1	> 100
Cc1noc(NC(=O)Nc2ccccc2F)c1C#N	> 100
C[C@@H]1CC[C@]2(C)C3(C)CC[C@]2(OC3=O)[C@@]12CC(c1ccoc1)OC2=O (stereo not given in full)	65.9
c1ccc(COC[C@H]2O[C@@H](c3ccccc3)C[C@@H](OCc3ccccc3)C2OCc2ccccc2)cc1 (stereo not given in full)	> 10

What follows are compounds tested on MOLT-4 leukemia (assay: growth of human tumour cells (NCI), 48 h).

SMILES	TGI [µM]
COc1cc(OC)c(OC)cc1/C=C/c1nc2ccccc2s1	> 100
Cc1noc(NC(=O)Nc2ccccc2F)c1C#N	> 100
C[C@@H]1CC[C@]2(C)C3(C)CC[C@]2(OC3=O)[C@@]12CC(c1ccoc1)OC2=O (stereo not given in full)	84.4
c1ccc(COC[C@H]2O[C@@H](c3ccccc3)C[C@@H](OCc3ccccc3)C2OCc2ccccc2)cc1 (stereo not given in full)	> 10

The compounds below were run on HOP-62 NSCLC (assay: growth of human tumour cells (NCI), 48 h).

SMILES	TGI [µM]
COc1cc(OC)c(OC)cc1/C=C/c1nc2ccccc2s1	> 100
Cc1noc(NC(=O)Nc2ccccc2F)c1C#N	> 100
C[C@@H]1CC[C@]2(C)C3(C)CC[C@]2(OC3=O)[C@@]12CC(c1ccoc1)OC2=O (stereo not given in full)	> 100
c1ccc(COC[C@H]2O[C@@H](c3ccccc3)C[C@@H](OCc3ccccc3)C2OCc2ccccc2)cc1 (stereo not given in full)	> 10

These compounds were tested on HS 578T breast (assay: growth of human tumour cells (NCI), 48 h).

SMILES	TGI [µM]
COc1cc(OC)c(OC)cc1/C=C/c1nc2ccccc2s1	> 100
Cc1noc(NC(=O)Nc2ccccc2F)c1C#N	> 56.4
C[C@@H]1CC[C@]2(C)C3(C)CC[C@]2(OC3=O)[C@@]12CC(c1ccoc1)OC2=O (stereo not given in full)	> 100

Each compound was assayed on SK-MEL-28 melanoma (assay: growth of human tumour cells (NCI), 48 h).

SMILES	TGI [µM]
COc1cc(OC)c(OC)cc1/C=C/c1nc2ccccc2s1	> 100
Cc1noc(NC(=O)Nc2ccccc2F)c1C#N	> 100
C[C@@H]1CC[C@]2(C)C3(C)CC[C@]2(OC3=O)[C@@]12CC(c1ccoc1)OC2=O (stereo not given in full)	66.3
c1ccc(COC[C@H]2O[C@@H](c3ccccc3)C[C@@H](OCc3ccccc3)C2OCc2ccccc2)cc1 (stereo not given in full)	> 10

These compounds were tested on NCI-H522 lung (assay: growth of human tumour cells (NCI), 48 h).

SMILES	TGI [µM]
COc1cc(OC)c(OC)cc1/C=C/c1nc2ccccc2s1	> 100
Cc1noc(NC(=O)Nc2ccccc2F)c1C#N	> 34.7
C[C@@H]1CC[C@]2(C)C3(C)CC[C@]2(OC3=O)[C@@]12CC(c1ccoc1)OC2=O (stereo not given in full)	4.46

What follows are compounds tested on SK-MEL-2 melanoma (assay: growth of human tumour cells (NCI), 48 h).

SMILES	TGI [µM]
COc1cc(OC)c(OC)cc1/C=C/c1nc2ccccc2s1	> 100
Cc1noc(NC(=O)Nc2ccccc2F)c1C#N	> 54.9
C[C@@H]1CC[C@]2(C)C3(C)CC[C@]2(OC3=O)[C@@]12CC(c1ccoc1)OC2=O (stereo not given in full)	> 100

These compounds were tested on UACC-257 melanoma (assay: growth of human tumour cells (NCI), 48 h).

SMILES	TGI [µM]
COc1cc(OC)c(OC)cc1/C=C/c1nc2ccccc2s1	> 100
Cc1noc(NC(=O)Nc2ccccc2F)c1C#N	> 51

The compounds below were run on MDA-N (assay: growth of human tumour cells (NCI), 48 h).

SMILES	TGI [µM]
COc1cc(OC)c(OC)cc1/C=C/c1nc2ccccc2s1	> 100
C[C@@H]1CC[C@]2(C)C3(C)CC[C@]2(OC3=O)[C@@]12CC(c1ccoc1)OC2=O (stereo not given in full)	> 100
c1ccc(COC[C@H]2O[C@@H](c3ccccc3)C[C@@H](OCc3ccccc3)C2OCc2ccccc2)cc1 (stereo not given in full)	> 10

These compounds were tested on RXF 393 renal (assay: growth of human tumour cells (NCI), 48 h).

SMILES	TGI [µM]
COc1cc(OC)c(OC)cc1/C=C/c1nc2ccccc2s1	> 100
Cc1noc(NC(=O)Nc2ccccc2F)c1C#N	> 100
C[C@@H]1CC[C@]2(C)C3(C)CC[C@]2(OC3=O)[C@@]12CC(c1ccoc1)OC2=O (stereo not given in full)	46.9
c1ccc(COC[C@H]2O[C@@H](c3ccccc3)C[C@@H](OCc3ccccc3)C2OCc2ccccc2)cc1 (stereo not given in full)	> 10

Each compound was assayed on HT29 colon (assay: growth of human tumour cells (NCI), 48 h).

SMILES	TGI [µM]
COc1cc(OC)c(OC)cc1/C=C/c1nc2ccccc2s1	> 100
Cc1noc(NC(=O)Nc2ccccc2F)c1C#N	> 37.7
C[C@@H]1CC[C@]2(C)C3(C)CC[C@]2(OC3=O)[C@@]12CC(c1ccoc1)OC2=O (stereo not given in full)	> 100

Each compound was assayed on MDA-MB-435 (assay: growth of human tumour cells (NCI), 48 h).

SMILES	TGI [µM]
COc1cc(OC)c(OC)cc1/C=C/c1nc2ccccc2s1	15.1
Cc1noc(NC(=O)Nc2ccccc2F)c1C#N	> 100
C[C@@H]1CC[C@]2(C)C3(C)CC[C@]2(OC3=O)[C@@]12CC(c1ccoc1)OC2=O (stereo not given in full)	56.4

These compounds were tested on SK-MEL-5 melanoma (assay: growth of human tumour cells (NCI), 48 h).

SMILES	TGI [µM]
COc1cc(OC)c(OC)cc1/C=C/c1nc2ccccc2s1	> 100
Cc1noc(NC(=O)Nc2ccccc2F)c1C#N	> 100
C[C@@H]1CC[C@]2(C)C3(C)CC[C@]2(OC3=O)[C@@]12CC(c1ccoc1)OC2=O (stereo not given in full)	> 100
c1ccc(COC[C@H]2O[C@@H](c3ccccc3)C[C@@H](OCc3ccccc3)C2OCc2ccccc2)cc1 (stereo not given in full)	> 10

These compounds were tested on SK-OV-3 ovarian (assay: growth of human tumour cells (NCI), 48 h).

SMILES	TGI [µM]
COc1cc(OC)c(OC)cc1/C=C/c1nc2ccccc2s1	> 100
Cc1noc(NC(=O)Nc2ccccc2F)c1C#N	> 100
C[C@@H]1CC[C@]2(C)C3(C)CC[C@]2(OC3=O)[C@@]12CC(c1ccoc1)OC2=O (stereo not given in full)	> 100
c1ccc(COC[C@H]2O[C@@H](c3ccccc3)C[C@@H](OCc3ccccc3)C2OCc2ccccc2)cc1 (stereo not given in full)	> 10

The compounds below were run on OVCAR-5 ovarian (assay: growth of human tumour cells (NCI), 48 h).

SMILES	TGI [µM]
COc1cc(OC)c(OC)cc1/C=C/c1nc2ccccc2s1	> 100
Cc1noc(NC(=O)Nc2ccccc2F)c1C#N	> 45.8
C[C@@H]1CC[C@]2(C)C3(C)CC[C@]2(OC3=O)[C@@]12CC(c1ccoc1)OC2=O (stereo not given in full)	78.4

These compounds were tested on HOP-92 NSCLC (assay: growth of human tumour cells (NCI), 48 h).

SMILES	TGI [µM]
COc1cc(OC)c(OC)cc1/C=C/c1nc2ccccc2s1	56.9
Cc1noc(NC(=O)Nc2ccccc2F)c1C#N	> 100
C[C@@H]1CC[C@]2(C)C3(C)CC[C@]2(OC3=O)[C@@]12CC(c1ccoc1)OC2=O (stereo not given in full)	69.2

What follows are compounds tested on SW-620 colon (assay: growth of human tumour cells (NCI), 48 h).

SMILES	TGI [µM]
COc1cc(OC)c(OC)cc1/C=C/c1nc2ccccc2s1	> 100
Cc1noc(NC(=O)Nc2ccccc2F)c1C#N	> 100
C[C@@H]1CC[C@]2(C)C3(C)CC[C@]2(OC3=O)[C@@]12CC(c1ccoc1)OC2=O (stereo not given in full)	74.2
c1ccc(COC[C@H]2O[C@@H](c3ccccc3)C[C@@H](OCc3ccccc3)C2OCc2ccccc2)cc1 (stereo not given in full)	> 10
